Where only a bound is given, the exact number is not on record here.

For one data set, the system named is Ishikawa cells. In words: Ishikawa cell proliferation assay (alkaline phosphatase readout; agonist and antagonist modes). The conditions noted are these: for agonist activity: agonist mode, compound alone, versus the response to tamoxifen. In kind it is cell-based. As to the method:
Ishikawa Cell Proliferation Assay:
This assay measures cell proliferation (using an alkaline phosphatase readout) in both an agonist mode in the presence of a test compound alone, and in an antagonist mode in which the ability of a test compound to block estradiol stimulation of growth is measured.
After an overnight incubation, Ishikawa cells are rinsed with Dulbecco's Phosphate Buffered Saline (“D-PBS”) without Ca^+2 and Mg^+2, and trypsinized by a 3 minute incubation with 0.25% Trypsin/EDTA, phenol red-free. Cells are re-suspended in assay medium and adjusted to 250,000 cells/mL. Approximately 25,000 cells in a 100 μl media are added to flat-bottom 96 wells microculture plates and incubated at 37° C. in a 5% CO2 humidified incubator for 24 hours. The next day, serial dilutions of compounds are prepared in assay medium (at 6 times the final concentration in the assay). The assay is run in dual mode, agonist and antagonist modes.
For the agonist mode, plates receive 25 μL/well of assay medium followed by 25 μL/well of a diluted test compound (at 6× the final concentrations). For the antagonist mode, plates receive 25 μL/well of 6 nM 17 β-estradiol (“E2”) followed by 25 μL/well of a diluted test compound (at 6× the final concentrations). After an additional 48-hour incubation at 37° C. in a 5% CO2 humidified incubator, media is aspirated from wells and 100 μL fresh assay medium is added to each microculture. Serial dilutions of compounds are prepared and added to the cells as described above. After an additional 72 hour incubation at 37° C. in a 5% CO2 humidified incubator, the assay is quenched by removing media and rinsing plates twice in D-PBS. The plates are dried for 5 minutes and frozen at −70° C. for at least 1 hour. The plates are then removed from the freezer and allowed to thaw at room temperature. After a 20-minute incubation, plates are read on a spectophotometer at 405 nm.
The data are fitted using a 4 parameter fit model to derive EC50 (for agonist mode) or IC50 (for antagonist mode) values. For the antagonist mode, a % efficacy for each compound is calculated versus E2 (1 nM) alone. For the agonist mode, a % efficacy for each compound is calculated versus the response to tamoxifen. […] The average agonist activity of the compound of Example 1 alone was 17.7%±11.3% (n=4) (arithmetric mean±standard deviation). The values for the compound of Example 1 may be compared to 4-hydroxytamoxifen which generally results in >100% agonist activity.

For data set [1] the following is noted: marker of cartilage type II collagen turnover; cited from earlier work.
The subject of a further data set is OVX rat uterus. The data set is described as follows: 4-Day OVX rat uterine agonist assay. In kind it is in vivo. As to the method:
4-Day OVX Rat Uterine Agonist Assay:
Seventy-five day old rats are ovariectomized and treatment is started 14 days later when circulating estradiol levels have reached minimal levels. After 4 days of treatment with 3 doses of a test compound, (6 rats per group) body weight, uterine wet weight and uterine eosinophil peroxidase (EPO) activity are measured. Cholesterol levels are also measured to compare relative ability to lower cholesterol with other SERMs. If there is any question of uterine stimulation, histological examination will determine epithelial cell height.
A significant (>10% of the increase induced by estradiol @0.1 mg/kg) and dose-responsive increase in uterine EPO activity is used as an early indicator of potential uterine agonist activity. […] None of the groups dosed with the compound of Example 1 evidenced an increase in EPO activity that was >10% of that induced by estradiol at 0.1 mg/Kg. Significant, dose-related increases in uterine endometrial thickness have also been used as an early sign of potential SERM uterine agonist activity.

Another data set deals with OVX/MCT animals. In words: OVX/Meniscal tear model of OA. In kind it is in vivo, rat. As to the method: The rat meniscal tear (MCT) model is a well-described model of OA in which joint damage and pain are induced by surgical intervention (transection of the medial meniscus) in one knee joint. In the standard MCT model using male rats, joint pathology develops progressively and is measured via joint histology at 3 weeks post-surgery.

Data set [2] concerns immature rat uterus (estrogen-induced uterine weight). The data set is described as follows: 3-Day immature rat uterus antagonist assay. The conditions noted are these: oral, 3 days, with EE2 0.1 mg/kg. The format is in vivo. An excerpt:
3-Day Immature Rat Uterus Antagonist Assay:
This model for uterine antagonism utilizes immature (3 week old) female rats that are highly sensitive to estrogenic stimulation of the uterus given that their circulating estrogen levels are prepubertal. The uteri from immature rats are fully responsive to exogenous estrogen, yet are quiescent in the absence of exogenous estrogen. Administration of exogenous estrogen to immature rats produces a reliable elevation of uterine weight, which can be used to study uterine antagonist effects. The rats are treated with both estradiol and 4 different concentrations of a test compound for 3 days and then uterine wet weights are measured. […]
Uterine weight/body weight ratios (UWR) are calculated for each animal. The percent inhibition of the estrogen-induced response is then calculated by the following formula: percent inhibition=100×(UWRestrogen−UWRtest compound)/(UWRestrogen−UWRcontrol)
ED50 values are derived from a semi-log regression analysis of the linear aspect of the dose response curve. Both the UWR data and the percent inhibition data are statistically analyzed by one way analysis of variance (ANOVA) with post-hoc testing by Fisher's PLSD when indicated by a p<0.05.

For another data set, the system named is pCTX-II. The data set is described as follows: P-CTXII biomarker. The format is in vivo. The source says:
pCTX-II is believed to be a useful biomarker reflecting efficacy relating to the treatment of OA. See for example, Garnero P et al Ann Rheum Dis 2003; 62:939-943; Mazieres B et al, Arthritis Rheum 2003; 48:5683

A further data set addresses T1, ERα receptor (Homo sapiens, UniProt P03372).
T1 sequence (P03372 1-595): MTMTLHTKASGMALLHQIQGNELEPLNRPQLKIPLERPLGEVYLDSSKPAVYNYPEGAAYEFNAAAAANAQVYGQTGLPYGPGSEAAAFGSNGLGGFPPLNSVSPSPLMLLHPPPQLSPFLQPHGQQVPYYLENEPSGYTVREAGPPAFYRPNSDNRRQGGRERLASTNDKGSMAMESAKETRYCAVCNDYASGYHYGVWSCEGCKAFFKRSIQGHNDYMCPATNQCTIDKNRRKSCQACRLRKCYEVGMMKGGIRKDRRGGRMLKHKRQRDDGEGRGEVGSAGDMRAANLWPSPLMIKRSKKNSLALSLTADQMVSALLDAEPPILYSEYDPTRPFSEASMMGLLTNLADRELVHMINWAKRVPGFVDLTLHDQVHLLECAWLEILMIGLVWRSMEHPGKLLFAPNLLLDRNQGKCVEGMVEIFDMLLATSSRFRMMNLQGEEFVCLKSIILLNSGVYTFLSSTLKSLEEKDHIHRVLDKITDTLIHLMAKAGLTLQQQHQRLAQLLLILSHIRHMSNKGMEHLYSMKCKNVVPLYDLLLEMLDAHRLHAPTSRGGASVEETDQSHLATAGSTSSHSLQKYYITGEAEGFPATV
In words: Estrogen receptor competition binding assay (3H-estradiol displacement), ERα. Conditions: geometric mean±standard deviation, from IC50 by Cheng-Prusoff, read-out: Ki-α. The protocol:
(§1) Estrogen Receptor Binding Assay:
(§2) Compounds are tested for binding affinity to both estrogen receptor types (ERα and ERβ) by a competition binding assay that measures the compound's ability to displace ^3H-estradiol from the receptors. IC50 and Ki values for both receptor types can be calculated.
(§3) A competition binding assay is run in a buffer containing 50 mM HEPES buffering reagent, pH 7.5, 1.5 mM ethylenediaminetetraacetic acid (“EDTA”), 150 mM NaCl, 10% glycerol, 1 mg/mL ovalbumin and 5 mM dithiothreitol (“DTT”), using 0.025 μCi per well ^3H-Estradiol (NEN#NET517 at 118 Ci/mmol, 1 mCi/mL), 10 ng/well ERα or ERβ receptor. A test compound is added at 10 different concentrations. Non-specific binding is determined in the presence of 1 μM of estradiol (17 β-estradiol). The binding reaction (140 μL) is incubated for 4 hours at room temperature, then 70 μl of cold DCC buffer is added to each reaction (DCC buffer contains per 50 mL of assay buffer, 750 mg of charcoal and 250 mg of dextran). Plates are mixed 8 minutes on an orbital shaker at 4° C. […] After an incubation of 2.5 hours, the plates are read in a counter. […] The Kd for ^3H-Estradiol is determined by saturation binding to ERα and ERβ receptors. The IC50 values for test compounds are converted to Ki using the Cheng-Prusoff equation, and the Kd determined by saturation binding assay.

The target of the next data set is ERβ receptor (Homo sapiens, UniProt Q92731). In words: Estrogen receptor competition binding assay (3H-estradiol displacement), ERβ. Conditions: geometric mean±standard deviation, from IC50 by Cheng-Prusoff, read-out: Ki-β. As to the method: as §1, §2, §3
Chain of ERβ receptor (Q92731 whole entry): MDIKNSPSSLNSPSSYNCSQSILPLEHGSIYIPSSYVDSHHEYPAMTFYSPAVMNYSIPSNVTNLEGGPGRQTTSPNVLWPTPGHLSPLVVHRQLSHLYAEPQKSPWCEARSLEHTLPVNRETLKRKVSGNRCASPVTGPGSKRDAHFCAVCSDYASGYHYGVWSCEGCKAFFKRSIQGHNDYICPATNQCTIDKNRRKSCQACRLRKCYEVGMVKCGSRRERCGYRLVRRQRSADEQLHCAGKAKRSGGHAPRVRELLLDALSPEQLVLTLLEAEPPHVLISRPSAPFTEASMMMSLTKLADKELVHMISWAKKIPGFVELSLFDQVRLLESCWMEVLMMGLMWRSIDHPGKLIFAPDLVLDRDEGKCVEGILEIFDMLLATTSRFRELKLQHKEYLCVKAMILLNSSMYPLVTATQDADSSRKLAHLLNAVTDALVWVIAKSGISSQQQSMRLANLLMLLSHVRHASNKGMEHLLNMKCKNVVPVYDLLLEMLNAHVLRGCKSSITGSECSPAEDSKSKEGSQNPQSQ
The mark [3] stands for this setting: n=4, arithmetic mean±standard deviation.

Take 4-hydroxytamoxifen [reference compound]: in the data set on Ishikawa cells (setting [3]), the agonist activity is listed as above 100%.

For `COc1ccc2c(c1)OC(C)(C)[C@@H](c1ccccc1)[C@@H]2c1ccc(OCCN2CCCC2)cc1` [levormeloxifene], the “urinary levels of CTX-II” value in [1] was “significantly decrease the urinary levels of CTX-II”.

Usually melting point stands for the temperature of the solid-liquid transition. For orientation: IC50 means the point on the concentration scale where inhibition reaches its midpoint. Usually Ki stands for the dissociation constant of the complex between target and ligand, obtained from inhibition or displacement. Regarding `Cc1ccc(-c2ccc3cc(O)ccc3c2Oc2ccc(OCCN3CCCCC3)cc2)s1.Cl` [Example 1, 6-(5-methylthiophen-2-yl)-5-(4-(2-(piperidin-1-yl)ethoxy)phenoxy)naphthalen-2-ol hydrochloride], the melting point was determined as 248.82 °C. Further, the IC50 in the data set on Ishikawa cells (Homo sapiens, Ishikawa, antagonist mode, n=4, geometric mean±standard deviation, read-out: relative IC50) turned out to be 3.75 ± 1.71 nM. For the same molecule, in the data set on Ishikawa cells (setting [3]), the agonist activity is 17.7%±11.3%. Further, in the data set with Ishikawa cells (antagonist mode, versus E2 (1 nM) alone, n=4, arithmetic mean±standard deviation), the antagonist efficacy is 102%±8.4%. The “increase in EPO activity relative to that induced by estradiol at 0.1 mg/Kg” value in the data set on OVX rat uterus (all dose groups) was “up to 10%”. Moreover, in the data set on OVX rat uterus (doses up to 10 mg/kg), the “uterine endometrial thickness, dose related increase vs OVX group” value is “did not result in significant, dose related increases in uterine endometrial thickness”. Further, the “uterine EPO activity, dose related increase vs OVX group” value with OVX rat uterus (doses up to 10 mg/kg, 4 days, Tukey Kramer p<0.05) is listed as “no significant dose related increases in EPO activity”. Also, in the data set with OVX/MCT animals (OVX animals, meniscal tear), the “doses with statistically significant pain reduction vs OVX/MCT group” value is on record as at least 1.0 mg/kg and the joint pain entry is given as “reduced pain in a dose-dependent fashion”. Moreover, the “reduction in joint pain compared with 17α-ethynylestradiol” value in the data set with OVX/MCT animals (doses of 3 and 10 mg/kg) is “not statistically different from those induced by 17α-ethynylestradiol”. For the same molecule, the “ED50 (inhibition of estrogen-induced uterine weight/body weight ratio)” value in [2] was 0.053 mg/kg. For the same molecule, in the data set with pCTX-II (all doses), the “pCTX-II levels compared with 17α-ethynylestradiol treatment” value was “not statistically different from those resulting from treatment with 17α-ethynylestradiol”. In the data set with pCTX-II (in vivo), the pCTX-II entry is “significantly and dose-dependently reduced pCTX-II”. Further, on ERα receptor, the inhibitory constant (Ki) came out at 0.15 ± 0.22 nM. Moreover, on ERβ receptor, the Ki turned out to be 0.2 ± 0.2 nM.

The values are drawn from patent US8476300B2, “Selective estrogen receptor modulator for the treatment of osteoarthritis” (Eli Lilly and Company, priority 2008, dated 2013).
